From patent US8486991B2, “Enantiomerically pure phosphoindoles as HIV inhibitors” (Idenix Pharmaceuticals, Inc., priority 2006, dated 2013)
Several values for one entry are separate records, joined by “and”; a condition that tells them apart may be missing. Equal values may be shown once. Read-outs that look alike come from different tables or passages of the source.

Legend:
[1] = In vitro half-life in liver microsomes, rat; type: in vitro ADME; settings: up to one hour, longer half-lives are extrapolated, n=1
Method: In vitro metabolism was assessed using liver microsomes for all species. Compounds were incubated at 1 μM with liver microsomes for up to one hour. Reported half-lives greater than the total incubation time are extrapolated values. Extracts were assayed for disappearance of parent compound by LC-MS/MS detection.
Data represents one independent experiment conducted.

HIV-1 IIIB in H9 cells = assay: Drug susceptibility assay, IIIB in H9 cells; type: cell-based; settings: Human immunodeficiency virus 1, IIIB
Text: (§1) The virus and host-cell dependency of Compound I, Compound III and control drugs was further examined in drug susceptibility assays performed across 3 different subtype B wild-type HIV-1 strains and 5 different cell lines.

HIV-1 W.T. (BH10) virus = assay: PBMC cell assay, W.T. (BH10); type: cell-based
[2] = system: HIV-1 BH10 wild-type virus; assay: CPE / cell protection assay, MT-4 cells, BH10 wild-type; type: cell-based; settings: for EC50: Human immunodeficiency virus 1, MT4; for Fold Change, W.T.: Table 9, CPE
Method: The activity of the compounds was also assessed with the same virus and cell type using a different assay readout based on cytopathic effect (CPE).
MT-4 cells (Source: NIH Catalog #120) were seeded onto 96-well cell culture plates (1×10^4 cells per well in 50 μL).
The final DMSO concentration in the assay was 0.5% in 120 μL. Cell cultures were then incubated at 37° C./5% CO2 for 4 days. Then, Cell Titer 96 AQueous One Solution Cell Proliferation Assay (Promega) was used to measure cell viability. Briefly, the One Solution Reagent was added directly to culture wells (20 μL/well), incubated for 5 hours, and the absorbance was recorded at 492 nm using the Sunrise Tecan Spectrophotometer.
The EC50 values were determined from the percent inhibition versus concentration data using a sigmoidal non-linear regression analysis based on four parameters with Tecan Magellan software.

HIV-1 NL4-3 w.t. virus = assay: microbe, parasite or virus in culture; type: cell-based; settings: for Fold Change, W.T.: Table 11, NL4-3
[3] = Cellular cytotoxicity, 4 days, six HIV-1 host cell lines (ranges); type: cell-based; settings: human, read-out: Mean CC50 Range
Method: (§2) Cell viability was measured by standard MTT or MTS staining.
(§3) Following drug exposure for 4 days, cell viability was measured by MTS staining and CC50 values were determined. Drug concentrations ranged from 0.005 μM to 100 μM.

[4] = molecular target: T1, human DNA polymerase gamma (Homo sapiens, UniProt P54098); assay: Human cellular DNA polymerase gamma assay; type: biochemical
T1 sequence (P54098 1-1239): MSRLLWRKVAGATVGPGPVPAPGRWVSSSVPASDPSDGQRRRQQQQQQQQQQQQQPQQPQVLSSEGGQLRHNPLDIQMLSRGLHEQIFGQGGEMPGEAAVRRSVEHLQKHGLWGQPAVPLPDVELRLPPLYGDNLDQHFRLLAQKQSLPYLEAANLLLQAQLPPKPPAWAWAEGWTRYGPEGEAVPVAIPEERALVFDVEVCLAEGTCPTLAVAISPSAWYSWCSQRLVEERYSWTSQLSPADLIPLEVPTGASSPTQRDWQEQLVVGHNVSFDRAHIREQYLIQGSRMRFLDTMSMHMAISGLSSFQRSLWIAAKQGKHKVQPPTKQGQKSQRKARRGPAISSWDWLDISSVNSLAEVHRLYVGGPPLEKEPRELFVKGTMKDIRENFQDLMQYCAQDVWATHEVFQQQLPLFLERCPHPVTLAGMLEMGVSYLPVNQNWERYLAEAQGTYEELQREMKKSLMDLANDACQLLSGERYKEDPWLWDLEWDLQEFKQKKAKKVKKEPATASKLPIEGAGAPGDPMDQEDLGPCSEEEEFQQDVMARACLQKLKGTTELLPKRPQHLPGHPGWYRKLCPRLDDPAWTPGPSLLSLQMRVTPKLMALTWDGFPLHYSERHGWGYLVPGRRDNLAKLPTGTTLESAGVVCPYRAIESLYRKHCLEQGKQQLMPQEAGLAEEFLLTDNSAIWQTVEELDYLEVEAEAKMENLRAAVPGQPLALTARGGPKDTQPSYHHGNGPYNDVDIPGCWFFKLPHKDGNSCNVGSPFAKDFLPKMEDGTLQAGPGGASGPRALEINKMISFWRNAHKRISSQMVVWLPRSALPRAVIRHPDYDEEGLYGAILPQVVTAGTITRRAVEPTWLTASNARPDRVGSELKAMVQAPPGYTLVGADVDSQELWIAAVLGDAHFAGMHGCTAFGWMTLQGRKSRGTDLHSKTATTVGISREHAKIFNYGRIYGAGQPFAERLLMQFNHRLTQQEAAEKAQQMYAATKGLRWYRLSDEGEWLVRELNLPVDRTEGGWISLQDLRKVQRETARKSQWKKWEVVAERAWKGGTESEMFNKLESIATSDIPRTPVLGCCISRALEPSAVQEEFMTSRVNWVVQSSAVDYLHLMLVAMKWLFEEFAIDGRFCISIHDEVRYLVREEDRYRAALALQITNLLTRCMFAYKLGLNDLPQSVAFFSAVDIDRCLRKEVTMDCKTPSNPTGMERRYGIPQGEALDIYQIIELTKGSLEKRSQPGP
Text: HIV RT, like other viral polymerase, shares limited structural homology with the cellular DNA polymerases responsible for normal nuclear and mitochondrial DNA synthesis and repair. This raises the formal possibility that inhibitors of HIV RT might inhibit cellular polymerases, resulting in cellular toxicity. In particular, inhibition of polymerase gamma has the potential to result in mitochondrial toxicity. The ability of Compound I and Compound III to inhibit cellular DNA polymerases was assessed using standard in vitro assays (Table 5).

[5] = Cellular cytotoxicity, 4 days, MTS, MOLT-4; type: cell-based; settings: human, Table 21, read-out: Average CC50 Values ± Standard Deviation, MOLT-4
Method: as §2, §3

HIV-1 IIIB in U937 cells = assay: Drug susceptibility assay, IIIB in U937 cells; type: cell-based; settings: Human immunodeficiency virus 1, IIIB
Text: as §1

[6] = molecular target: T2, wild-type HIV-1 RT enzyme in BH10 backbone (Human immunodeficiency virus type 1 group M subtype B, UniProt P03366); assay: biochemical; settings: for IC50: Average IC50 Values ± Standard Deviation, W.T.; for Fold Change, W.T.: Table 2, mutant vs wild-type; for Average Fold Changes ± Standard Deviation, W.T.: Table 4, IC50 mutant / IC50 wild-type
T2 construct: wild-type HIV RT enzyme derived from HIV subtype B (BH-10 strain)
Text: In Vitro Antiviral Activity Against Additional Mutant HIV RT Enzymes

[7] = Human immunodeficiency virus 1, PBMC, read-out: Average EC50 Values ± Standard Deviation, W.T. (BH10)
[8] = Human immunodeficiency virus 1, PBMC, read-out: mean EC50, BH-10 strain in human PBMC
[9] = Cell Protection Assay tables, unit inferred, read-out: EC50, BH10
[10] = Table 8, CPE readout, read-out: Average EC50 Values ± Standard Deviation, W.T.
[11] = range over the three agents, read-out: mean EC50 values, WT BH10 virus, CPE assay
[12] = Human immunodeficiency virus 1, NL43, MT4, read-out: Average EC50 Values ± Standard Deviation, W.T.
[13] = Human immunodeficiency virus 1, NL43, MT4, read-out: Average EC50 Values ± Standard Deviation, host MT-4, virus NL4-3
[14] = Table 1, in presence of detergent
[15] = H9, Table 17, read-out: Average EC50 Values ± Standard Deviation, host H9, virus IIIB
[16] = Table 5, preliminary data from a single experiment, read-out: Average IC50 Values, DNA Pol Gamma
[17] = MOLT-4 cells (T lymphoblastic leukemia cell line)
[18] = U-937, Table 17, read-out: Average EC50 Values ± Standard Deviation, host U937, virus IIIB

| Structure (SMILES) | EC50 (HIV-1 W.T. (BH10) virus; [7]) | EC50 (HIV-1 W.T. (BH10) virus; [8]) | EC50 [2, 9] | EC50 [2, 10] | EC50 [2, 11] | Fold Change, W.T. [2] | EC50 (HIV-1 NL4-3 w.t. virus; [12]) | EC50 (HIV-1 NL4-3 w.t. virus; [13]) | Fold Change, W.T. (HIV-1 NL4-3 w.t. virus) | CC50 at 4 days [3] | IC50 [6, 14] | IC50 ([6]; Table 3, N=10) | Fold Change, W.T. [6] | Average Fold Changes ± Standard Deviation, W.T. [6] | EC50 (HIV-1 IIIB in H9 cells; [15]) | IC50 [4, 16] | CC50 at 4 days [5, 17] | EC50 (HIV-1 IIIB in U937 cells; [18]) | other results |
| --- | --- | --- | --- | --- | --- | --- | --- | --- | --- | --- | --- | --- | --- | --- | --- | --- | --- | --- | --- |
| CO[P@](=O)(c1cc(C)cc(/C=C/C#N)c1)c1c(C(N)=O)[nH]c2ccc(Cl)c(F)c12 [Compound I, (2-Carbamoyl-5-chloro-4-fluoro-1H-indol-3-yl)-[3-((E)-2-cyano-vinyl)-5-methyl-phenyl]-(R)-phosphinic acid methyl ester] | 0.4 ± 0.1 nM | 0.4 nM | 0.28 ± 0.072 nM | 0.3 ± 0.1 nM | 0.1 to 0.7 nM | 1 fold | 2 ± 0.1 nM | 2 ± 0.1 nM | 1 fold | 16.6 to 32.9 µM | 366 ± 251 nM | 230 ± 50 nM | 1 fold | 1 fold |  |  |  |  | half-life at 1 μM ([1]; microsomes): 100 min; EC50 (HIV-1 IIIB in H9 cells; H9, read-out: Average EC50 Values ± Standard Deviation, host H9, virus IIIB): 0.6 ± 0.1 nM; IC50 ([4]; Average IC50 Values, DNA Pol Gamma, Table 5, preliminary data from a single experiment): 118 µM; IC50 ([4]; Mean IC50 Values ± Standard Deviation, DNA Pol Gamma, Table 6, N=4): 118 µM; CC50 at 4 days [5]: 16.6 ± 0.4 µM; EC50 (HIV-1 IIIB in U937 cells; U-937, read-out: Average EC50 Values ± Standard Deviation, host U937, virus IIIB): 0.5 ± 0.1 nM |
| CO[P@](=O)(c1cc(C)cc(/C=C/C#N)c1)c1c(C(N)=O)[nH]c2ccc(Cl)cc12 [Compound III, (2-Carbamoyl-5-chloro-1H-indol-3-yl)-[3-((E)-2-cyano-vinyl)-5-methyl-phenyl]-(R)-phosphinic acid methyl ester] | 0.4 ± 0.1 nM | 0.4 nM | 0.15 ± 0.11 nM | 0.2 ± 0.1 nM | 0.1 to 0.7 nM | 1 fold | 1.7 ± 0.3 nM | 1.7 ± 0.3 nM | 1 fold | 14.8 to 50 µM | 343 ± 83 nM | 210 ± 20 nM | 1 fold | 1 fold | 0.5 ± 0.2 nM | ≥ 60 µM and 60.1 µM | 14.8 ± 1 µM | 0.5 ± 0.1 nM | half-life at 1 μM ([1]; liver microsomes): 88.8 min |
| O=C1Nc2ccc(Cl)cc2C(C#CC2CC2)(C(F)(F)F)O1 (centres unmarked) [EFV, 6-chloro-4-cyclopropylethynyl-4-trifluoromethyl-1,4-dihydro-2H-3,1-benzoxazin-2-one, reference compound] |  |  |  | 0.6 ± 0.1 nM | 0.1 to 0.7 nM |  | 2.3 ± 0.2 nM | 2.3 ± 0.2 nM |  | 23.2 to 51 µM |  |  |  |  | 1.5 ± 0.6 nM | 116 µM | 41.7 ± 3.4 µM | 1.5 ± 0.8 nM | EC50 (HIV-1 W.T. (BH10) virus; Human immunodeficiency virus 1, Table 14, PBMC, read-out: Average EC50 Values ± Standard Deviation, W.T. (BH10)): 0.9 ± 0.3 nM; IC50 ([4]; Table 6, N=4, read-out: Mean IC50 Values ± Standard Deviation, DNA Pol Gamma): ≥ 100 µM |
